Experimental findings from article PMC2771219 (Journal of molecular biology, 2009) are described below.

The assay concerns the target UDP-galactopyranose mutase (UGM) (Klebsiella pneumoniae, UniProt Q48485, R384G). The assay can be described thus: fluorescence polarization. The assay is classed as binding. On the technique in general: In fluorescence polarisation assays a small probe gives low polarisation when free and higher when bound to something large.

By Kd is commonly meant the free concentration of one partner at which half of the binding sites on the other are occupied at equilibrium, for simple one-to-one binding. A lower Kd goes with a tighter complex.

Regarding UDP-fluorescein, binding was put at a Kd of 0.09 µM.
